# Assay results: PubChem BioAssay (NCI)
# Values joined by “and” are separate entries in the source; they are usually repeats but may differ in a detail not shown here. Equal values may be shown once.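 A five-concentration, 48-hour dose response in 96-well plates underlies each endpoint, interpolated linearly between surrounding concentrations. GI50: concentration for 50% inhibition of growth. TGI: concentration producing complete growth inhibition.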
# Experiments:
# Assay in all cases: growth of human tumour cells (NCI), 48 h
# HCT-15 colon = test system: HCT-15 colon
# HOP-62 NSCLC = test system: HOP-62 NSCLC
# DU-145 prostate = test system: DU-145 prostate
# LOX IMVI melanoma = test system: LOX IMVI melanoma
# T-47D breast = test system: T-47D breast
# SK-MEL-2 melanoma = test system: SK-MEL-2 melanoma
# OVCAR-4 ovarian = test system: OVCAR-4 ovarian
# UACC-257 melanoma = test system: UACC-257 melanoma
# A498 renal = test system: A498 renal
# SK-OV-3 ovarian = test system: SK-OV-3 ovarian
SMILES,GI50 (HCT-15 colon),TGI (HCT-15 colon) [µM],GI50 (HOP-62 NSCLC),TGI (HOP-62 NSCLC) [µM],GI50 (DU-145 prostate),TGI (DU-145 prostate) [µM],GI50 (LOX IMVI melanoma),TGI (LOX IMVI melanoma) [µM],GI50 (T-47D breast) [µM],TGI (T-47D breast) [µM],GI50 (SK-MEL-2 melanoma),TGI (SK-MEL-2 melanoma) [µM],GI50 (OVCAR-4 ovarian),TGI (OVCAR-4 ovarian) [µM],GI50 (UACC-257 melanoma) [µM],TGI (UACC-257 melanoma) [µM],GI50 (A498 renal),TGI (A498 renal) [µM],GI50 (SK-OV-3 ovarian),TGI (SK-OV-3 ovarian) [µM]
O=c1[nH]c2cc(O)ccc2n2cc3c(F)cccc3c12,0.536 µM,> 100,0.847 µM,> 100,6.78 µM,> 100,0.748 µM,> 100,> 100,> 100,> 21.2 µM,> 100,> 100 µM,> 100,31.9,> 100,3.76 µM,> 100,1.65 µM,> 100
CC(C)(C)NCCC(O)c1cc(C(F)(F)F)nc2c(C(F)(F)F)cccc12 (configuration not stated),–,21,–,14.5,–,6.17,–,5.31,–,30.9,–,24.6,–,27.1,–,26.4,–,28.3,–,30.3
COc1cc(/C=C\c2cccnc2Nc2ccccc2)cc(OC)c1OC,5.02 µM,> 100,12.1 µM,> 100,6.22 µM,> 100,4.51 µM,24.6,5.3,47.6,8 µM,28.8,9.78 µM,> 100,8.52,65.7,2.64 µM,36.5,11.1 µM,> 100
OCCCCC#Cc1ccccc1C#Cc1cnccn1,33.3 µM,> 100,41 µM,> 100,13.8 µM,> 100,32 µM,> 100,27.5,> 100,70.7 µM,> 100,28.5 µM,> 100,26,62,13.5 µM,53.9,46.3 µM,> 100
COc1cc(OC)c(/C=C/S(=O)(=O)Cc2ccc(OC)c(NCC(=O)O)c2)c(OC)c1,0.127 µM and 0.241 µM,> 100,0.291 µM and 0.0874 µM,> 100,0.29 µM and 0.176 µM,–,0.15 µM and 0.134 µM,> 100,> 100,> 100,0.396 µM and 0.288 µM,> 100,> 2.91 µM and 0.417 µM,> 100,–,> 100,0.0668 µM and 0.0448 µM,–,0.442 µM and 0.099 µM,> 100
COc1cc(C(=O)/C=C/c2c(C(F)(F)F)nc3sccn23)cc(OC)c1OC,1.8 µM,5.39,1.93 µM,3.92,1.41 µM,2.86,1.36 µM,2.89,2.12,5.76,2.26 µM,5.09,3.05 µM,17.6,1.9,4.2,1.89 µM,3.42,2.87 µM,8.99
CCCCCCN(CCCCCC)CC(O)c1cccc2ccc(Cl)cc12 (configuration not stated),5.01 µM,18.3,3.71 µM,14.5,11.6 µM,25,4.14 µM,15.6,1.67,4.46,10.2 µM,24.6,7.44 µM,33,12.9,28.7,10.4 µM,22.3,11.3 µM,23.4
C=CC[PH+](c1ccccc1)c1ccccc1.C=CC[PH+](c1ccccc1)c1ccccc1.[Cl][Pt][Cl],3.87 µM,16.8,18.5 µM,40.5,12.7 µM,30.2,2.1 µM,4.7,4.59,24.6,18.3 µM,40.4,4.78 µM,16.8,11.9,31.6,16.5 µM,57.8,24 µM,65.7
